# According to ChEMBL document CHEMBL6134865, “Rational Design of Methylene Blue-Raloxifene Conjugates for Efficient Breast Tumor Elimination Triggered by ERα Degradation” (J Med Chem, 2025):
# The source made the active and inactive calls. The rule behind the calls is not given here.
# Key:
# MCF7 [1] = experiment: Induction of ROS generation in human MCF7 cells assessed as cell percentage with elevated ROS incubated for 6 hrs followed by irradiation with 660 nm 0.4 W/cm2 light for 5 min by DCFH-DA probe based flow cytometric analysis; type: functional; details: dose 0.1-5 µM, time 365.0 min
# MCF7 [2] = experiment: cells; details: Homo sapiens, MCF7, light or radiation study
# Description: Antiproliferative activity against human MCF7 cells assessed as inhibition of cell proliferation incubated for 48 hrs with 660 nm 0.4 W/cm2 light irradiation for 2 min at 6th hr of incubation time by MTT assay
# [3] = Toxicity in female BALB/c mouse xenografted with human MCF7 cells assessed as change in ALT level at 5 mg/kg, iv measured after 14 days; type: organism-based; details: in vivo, 336 h, time 14 day
# MCF7 [4] = experiment: Antiproliferative activity against human MCF7 cells assessed as inhibition of cell proliferation incubated for 48 hrs with 660 nm 0.2 to 1.5 W/cm2 light irradiation for 1 min at 6th hr of incubation time by MTT assay; type: functional, cell-based
# MCF7 [5] = experiment: Photothermal effect in human MCF7 cells assessed as temperature of cell culture medium at 1 uM irradiated with 660 nm 0.4 W/cm2 light for 5 min (reference value: 26 degreeC); type: ADME, cell-based; details: mcf7, 5 min
# [6] = Toxicity in female BALB/c mouse xenografted with human MCF7 cells assessed as change in hematocrit level at 5 mg/kg, iv measured after 14 days; type: organism-based; details: in vivo, 336 h, time 14 day
# [7] = Photothermal effect of compound in water assessed as increase in temperature of solution at 1 uM incubated for 5 mins in presence of presence of 660 nm 0.2 to 1.5 W/cm2 light; type: functional
# [8] = Cytotoxicity against human MCF-10A cells assessed as inhibition of cell proliferation incubated for 48 hrs in absence of light irradiation by MTT assay; type: toxicity, cell-based
# [9] = Toxicity in female BALB/c mouse xenografted with human MCF7 cells assessed as change in red blood cell level at 5 mg/kg, iv measured after 14 days; type: organism-based; details: in vivo, 336 h, time 14 day
# in vivo [10] = details: Sprague-Dawley, rat, po, 15 mg/kg
# Description: Cmax in Sprague-Dawley rat at 15 mg/kg, po administered via gavage and measured after 0.5 to 168 hrs by LC-MS analysis
# in vivo [11] = details: Sprague-Dawley, rat, po, 15 mg/kg; remark: listed apart in the source
# Description: AUC (0 to infinity) in Sprague-Dawley rat at 15 mg/kg, po administered via gavage and measured after 0.5 to 168 hrs by LC-MS analysis
# MCF7 [12] = experiment: cells; details: Homo sapiens, MCF7, light or radiation study; remark: listed apart in the source
# Description: Antiproliferative activity against human MCF7 cells assessed as inhibition of cell proliferation incubated for 48 hrs with 660 nm 0.4 W/cm2 light irradiation for 1 min at 6th hr of incubation time by MTT assay
# [13] = Drug uptake in human MCF7 cell nucleus assessed as increase in red fluorescence at 1 uM incubated for 6 hrs by fluorescence imaging analysis; type: ADME, subcellular; details: mcf7, 6 h
# MCF7 [14] = experiment: cells; details: Homo sapiens, MCF7, light or radiation study; remark: listed apart in the source
# Description: Antiproliferative activity against human MCF7 cells assessed as inhibition of cell proliferation incubated for 48 hrs with 660 nm 0.4 W/cm2 light irradiation for 3 min at 6th hr of incubation time by MTT assay
# in vivo [15] = details: Sprague-Dawley, rat, iv, 5 mg/kg
# Description: Cmax in Sprague-Dawley rat at 5 mg/kg, iv measured after 0.5 to 168 hrs by LC-MS analysis
# MCF7 [16] = experiment: Induction of ROS generation in human MCF7 cells assessed as cell percentage with elevated ROS at 1 uM incubated for 6 hrs followed by irradiation with 660 nm 0.4 W/cm2 light for 3 min by DCFH-DA probe based flow cytometric analysis (reference value: 0.2 %); type: functional; details: time 363 min, 6.05 h
# [17] = Toxicity in female BALB/c mouse xenografted with human MCF7 cells assessed as change in platelet level at 5 mg/kg, iv measured after 14 days; type: organism-based; details: in vivo, 336 h, time 14 day
# MCF7 [18] = experiment: cells; details: Homo sapiens, MCF7, 48 h
# Description: Antiproliferative activity against human MCF7 cells assessed as inhibition of cell proliferation incubated for 48 hrs by MTT assay
# in vivo [19] = details: Sprague-Dawley, rat, iv, 5 mg/kg; remark: listed apart in the source
# Description: AUC (0 to infinity) in Sprague-Dawley rat at 5 mg/kg, iv measured after 0.5 to 168 hrs by LC-MS analysis
# [20] = Toxicity in female BALB/c mouse xenografted with human MCF7 cells assessed as change in ALT level at 5 mg/kg, iv measured after 14 days with 660 nm 0.4 W/cm2 light irradiation for 5 mins at 4 hrs of incubation time; type: organism-based; details: in vivo, 336 h, time 14 day
# [21] = Drug uptake in female BALB/c mouse liver xenografted with human MCF7 cells at 5 mg/kg, iv measured after 4 hrs by fluorescence imaging analysis; type: ADME, organism-based; details: in vivo
# [22] = Toxicity in female BALB/c mouse xenografted with human MCF7 cells assessed as change in AST level at 5 mg/kg, iv measured after 14 days with 660 nm 0.4 W/cm2 light irradiation for 5 mins at 4 hrs of incubation time; type: organism-based; details: in vivo, 336 h, time 14 day
# [23] = Induction of ROS generation in water at 1 uM irradiated with 660 nm 0.4 W/cm2 light up to 180 sec by DCFH probe based fluorescence spectra analysis; type: functional
# MCF7 [24] = experiment: Antitumor activity against human MCF7 cells xenografted in female BALB/c mouse model assessed as reduction in tumor weight at 5 mg/kg, iv measured after 14 days with 660 nm 0.4 W/cm2 light irradiation for 5 mins at 4 hrs of incubation time; type: functional, organism-based; details: time 14.0 day
# MCF7 [25] = experiment: Antitumor activity against human MCF7 cells xenografted in female BALB/c mouse model assessed as tumor growth inhibition at 5 mg/kg, iv measured after 14 days with 660 nm 0.4 W/cm2 light irradiation for 5 mins at 4 hrs of incubation time relative to control; type: functional; details: MCF7, light or radiation study, 336 h, time 14 day, read-out: TGI
# MCF7 [26] = experiment: Antitumor activity against human MCF7 cells xenografted in female BALB/c mouse model assessed as tumor growth inhibition at 5 mg/kg, iv measured after 14 days relative to control; type: functional; details: MCF7, 336 h, time 14 day, read-out: TGI
# MCF7 [27] = experiment: Antitumor activity against human MCF7 cells xenografted in female BALB/c mouse model assessed as damage in tumor tissue at 5 mg/kg, iv measured after 14 days with 660 nm 0.4 W/cm2 light irradiation for 5 mins at 4 hrs of incubation time by H and E staining based analysis; type: functional, organism-based; details: time 14.0 day
# [28] = Induction of ROS generation in water assessed as decrease in ABDA absorption peak at 5 uM irradiated with 660 nm 0.4 W/cm2 light up to 5 mins by ABDA probe based UV-vis absorption spectra analysis; type: functional
# MCF7 [29] = experiment: Photothermal effect in human MCF7 cells assessed as temperature of cell culture medium at 1 uM irradiated with 660 nm 0.4 W/cm2 light for 4 min (reference value: 26 degreeC); type: ADME, cell-based; details: mcf7, 4 min
# MCF7 [30] = experiment: Photothermal effect in human MCF7 cells assessed as temperature of cell culture medium at 1 uM irradiated with 660 nm 0.4 W/cm2 light for 2 min (reference value: 26 degreeC); type: ADME, cell-based; details: mcf7, 2 min
# [31] = Toxicity in female BALB/c mouse xenografted with human MCF7 cells assessed as change in blood urea nitrogen level at 5 mg/kg, iv measured after 14 days with 660 nm 0.4 W/cm2 light irradiation for 5 mins at 4 hrs of incubation time; type: organism-based; details: in vivo, 336 h, time 14 day
# [32] = Toxicity in female BALB/c mouse xenografted with human MCF7 cells assessed as effect on heart histology at 5 mg/kg, iv measured after 14 days by H and E staining based analysis; type: organism-based; details: in vivo, 336 h, time 14 day
# in vivo [33] = details: Sprague-Dawley, rat, iv, 5 mg/kg; remark: listed apart in the source
# Description: Volume of distribution at steady state in Sprague-Dawley rat at 5 mg/kg, iv measured after 0.5 to 168 hrs by LC-MS analysis
# [34] = Toxicity in female BALB/c mouse xenografted with human MCF7 cells assessed as change in body weight at 5 mg/kg, iv measured after 14 days; type: organism-based; details: in vivo, 336 h, time 14 day
# MCF7 [35] = experiment: Photothermal effect in human MCF7 cells assessed as temperature of cell culture medium at 1 uM irradiated with 660 nm 0.4 W/cm2 light for 1 min (reference value: 26 degreeC); type: ADME, cell-based; details: mcf7, 1 min
# [36] = Toxicity in female BALB/c mouse xenografted with human MCF7 cells assessed as change in AST level at 5 mg/kg, iv measured after 14 days; type: organism-based; details: in vivo, 336 h, time 14 day
smiles,measurement,setting,value
CCN(CC)c1ccc2nc3c4ccccc4/c(=N\CCCCCCC(=O)NCCOc4ccc(C(=O)c5c(-c6ccc(O)cc6)sc6cc(O)ccc56)cc4)cc-3sc2c1,Activity,MCF7 [1],Dose-dependent-effect
same,IC50,MCF7 [2],290 nM
same,Activity,[3],Non-toxic
same,Activity,MCF7 [4],Active
same,T,MCF7 [5],32.5 °C
same,Activity,[6],Non-toxic
same,Activity,[7],Active
same,IC50 at 48 h,[8],> 100000 nM
same,Activity,[9],Non-toxic
same,Cmax,in vivo [10],17.5 ng/mL
same,AUC(0-inf),in vivo [11],357 ng·h/mL
same,IC50,MCF7 [12],550 nM
same,Drug uptake,[13],Active
same,IC50,MCF7 [14],200 nM
same,Cmax,in vivo [15],30.2 ng/mL
same,Activity,MCF7 [16],15%
same,Activity,[17],Non-toxic
same,IC50,MCF7 [18],25100 nM
same,AUC(0-inf),in vivo [19],279 ng·h/mL
same,Activity,[20],Non-toxic
same,Drug uptake,[21],Active
same,Activity,[22],Non-toxic
same,Activity,[23],Active
same,Activity,MCF7 [24],Active; Significant Performance Than Faslodex Observed
same,inhibition in vivo at 5 mg/kg,MCF7 [25],118%
same,inhibition in vivo at 5 mg/kg,MCF7 [26],77.5%
same,Activity,MCF7 [27],Active
same,Activity,[28],Active
same,T,MCF7 [29],30.9 °C
same,T,MCF7 [30],28.4 °C
same,Activity,[31],Non-toxic
same,Activity,[32],Non-toxic
same,Vd,in vivo [33],108 L/kg
same,Activity,[34],Non-toxic
same,T,MCF7 [35],27.3 °C
same,Activity,[36],Non-toxic
